Values of other authors as cited in US20110086399A1, “RECOVERY OF STILBENOIDS” (FLUXOME SCIENCES A/S, priority 2008, published 2011).

Details: stated for comparison with the concentrations in the cell broth

aqueous solubility: < 30 µg/mL
SMILES: Oc1cc(O)cc(/C=C/c2ccccc2)c1 [pinosylvin]
